# According to PubChem BioAssay (NCI):
#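 1) Cells in 96-well plates. 2) Compound, 48 h, 5 concentrations. 3) Linear interpolation between surrounding doses. 4) Unreached endpoint = highest concentration. TGI marks complete inhibition of growth.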
# Assays:
# Assay in all cases: DTP human tumour cell line panel, 48 h
# HCT-15 colon = system: HCT-15 colon
# ACHN renal = system: ACHN renal
# UO-31 renal = system: UO-31 renal
# SF-268 CNS = system: SF-268 CNS
# RXF 393 renal = system: RXF 393 renal
# HT29 colon = system: HT29 colon
# NCI-H23 lung = system: NCI-H23 lung
# LOX IMVI melanoma = system: LOX IMVI melanoma
# UACC-62 melanoma = system: UACC-62 melanoma
# NCI-H522 lung = system: NCI-H522 lung
# HOP-92 NSCLC = system: HOP-92 NSCLC
# SK-OV-3 ovarian = system: SK-OV-3 ovarian
# SF-295 CNS = system: SF-295 CNS
# MCF7 breast = system: MCF7 breast
# MDA-MB-435 = system: MDA-MB-435
# DU-145 prostate = system: DU-145 prostate
# OVCAR-4 ovarian = system: OVCAR-4 ovarian
# HOP-62 NSCLC = system: HOP-62 NSCLC
# HCC-2998 colon = system: HCC-2998 colon
# PC-3 prostate = system: PC-3 prostate
compound,measurement,setting,value
c1nc(N2CC2)c2cnn(C3CCCCO3)c2n1 (configuration not stated),TGI,HCT-15 colon,> 100 µM
same,TGI,ACHN renal,> 100 µM
same,TGI,UO-31 renal,> 100 µM
same,TGI,SF-268 CNS,> 100 µM
same,TGI,RXF 393 renal,> 100 µM
same,TGI,HT29 colon,> 100 µM
same,TGI,NCI-H23 lung,> 100 µM
same,TGI,LOX IMVI melanoma,> 100 µM
same,TGI,UACC-62 melanoma,> 100 µM
same,TGI,NCI-H522 lung,> 100 µM
same,TGI,HOP-92 NSCLC,> 100 µM
same,TGI,SK-OV-3 ovarian,> 100 µM
same,TGI,SF-295 CNS,> 100 µM
same,TGI,MCF7 breast,> 100 µM
same,TGI,MDA-MB-435,> 100 µM
same,TGI,DU-145 prostate,> 100 µM
same,TGI,OVCAR-4 ovarian,> 100 µM
same,TGI,HOP-62 NSCLC,> 100 µM
same,TGI,HCC-2998 colon,> 100 µM
same,TGI,PC-3 prostate,> 100 µM
[Cl-].[Rh+3].c1cnc2c(c1)ccc1cccnc12.c1cnc2c(c1)ccc1cccnc12.c1cnc2c(c1)ccc1cccnc12,TGI,HCT-15 colon,> 100 µM
same,TGI,ACHN renal,> 100 µM
same,TGI,UO-31 renal,> 100 µM
same,TGI,HT29 colon,> 100 µM
same,TGI,NCI-H23 lung,> 100 µM
same,TGI,LOX IMVI melanoma,> 100 µM
same,TGI,UACC-62 melanoma,> 100 µM
same,TGI,NCI-H522 lung,> 100 µM
same,TGI,HOP-92 NSCLC,> 100 µM
same,TGI,SK-OV-3 ovarian,> 100 µM
same,TGI,SF-295 CNS,> 100 µM
same,TGI,OVCAR-4 ovarian,> 100 µM
same,TGI,HOP-62 NSCLC,> 100 µM
same,TGI,HCC-2998 colon,> 100 µM
CN1CCN(c2ccc3[nH]c(-c4cc(O)c5c(nc(CO)n5C)c4O)nc3n2)CC1,TGI,HCT-15 colon,> 100 µM
same,TGI,ACHN renal,> 100 µM
same,TGI,UO-31 renal,> 100 µM
same,TGI,SF-268 CNS,> 100 µM
same,TGI,RXF 393 renal,> 100 µM
same,TGI,HT29 colon,> 100 µM
same,TGI,NCI-H23 lung,> 100 µM
same,TGI,LOX IMVI melanoma,37.9 µM
same,TGI,UACC-62 melanoma,27.8 µM
same,TGI,NCI-H522 lung,> 100 µM
same,TGI,HOP-92 NSCLC,> 100 µM
same,TGI,SK-OV-3 ovarian,> 100 µM
same,TGI,SF-295 CNS,> 100 µM
same,TGI,MDA-MB-435,48.3 µM
same,TGI,DU-145 prostate,> 100 µM
same,TGI,OVCAR-4 ovarian,> 100 µM
same,TGI,HOP-62 NSCLC,> 100 µM
same,TGI,HCC-2998 colon,> 100 µM
same,TGI,PC-3 prostate,> 100 µM
CCCCC(=O)c1ccc2ccccc2c1O,TGI,HCT-15 colon,> 100 µM
same,TGI,ACHN renal,> 100 µM
same,TGI,UO-31 renal,> 100 µM
same,TGI,SF-268 CNS,> 100 µM
same,TGI,RXF 393 renal,> 100 µM
same,TGI,HT29 colon,> 100 µM
same,TGI,NCI-H23 lung,> 100 µM
same,TGI,LOX IMVI melanoma,> 100 µM
same,TGI,UACC-62 melanoma,> 100 µM
same,TGI,HOP-92 NSCLC,> 100 µM
same,TGI,SK-OV-3 ovarian,> 100 µM
same,TGI,SF-295 CNS,> 100 µM
same,TGI,MCF7 breast,> 100 µM
same,TGI,MDA-MB-435,> 100 µM
same,TGI,DU-145 prostate,> 100 µM
same,TGI,OVCAR-4 ovarian,> 100 µM
same,TGI,HOP-62 NSCLC,> 100 µM
same,TGI,HCC-2998 colon,> 100 µM
same,TGI,PC-3 prostate,> 100 µM
C[C@]12CC[C@H](OC(=O)Cc3ccc(N(CCCl)CCCl)cc3)CC1=CC[C@@H]1[C@@H]2CC[C@]2(C)C(=O)CC[C@@H]12,TGI,HCT-15 colon,> 100 µM
same,TGI,ACHN renal,> 100 µM
same,TGI,UO-31 renal,> 100 µM
same,TGI,SF-268 CNS,> 100 µM
same,TGI,RXF 393 renal,> 100 µM
same,TGI,HT29 colon,> 100 µM
same,TGI,NCI-H23 lung,> 100 µM
same,TGI,LOX IMVI melanoma,> 100 µM
same,TGI,NCI-H522 lung,> 100 µM
same,TGI,HOP-92 NSCLC,> 100 µM
same,TGI,MCF7 breast,> 100 µM
same,TGI,MDA-MB-435,> 100 µM
same,TGI,DU-145 prostate,> 100 µM
same,TGI,HOP-62 NSCLC,> 100 µM
same,TGI,HCC-2998 colon,> 100 µM
same,TGI,PC-3 prostate,> 100 µM
CCCC/C=C/C/C=C/CCCCCCCCC(=O)OCC1CCCN2CCCCC12 (configuration not stated),TGI,HCT-15 colon,> 100 µM
same,TGI,ACHN renal,> 100 µM
same,TGI,UO-31 renal,> 100 µM
same,TGI,SF-268 CNS,> 100 µM
same,TGI,RXF 393 renal,> 100 µM
same,TGI,HT29 colon,> 100 µM
same,TGI,NCI-H23 lung,> 100 µM
same,TGI,LOX IMVI melanoma,> 100 µM
same,TGI,UACC-62 melanoma,> 100 µM
same,TGI,HOP-92 NSCLC,> 100 µM
same,TGI,SK-OV-3 ovarian,> 100 µM
same,TGI,SF-295 CNS,> 100 µM
same,TGI,MCF7 breast,> 100 µM
same,TGI,MDA-MB-435,> 100 µM
same,TGI,DU-145 prostate,> 100 µM
same,TGI,OVCAR-4 ovarian,> 100 µM
same,TGI,HOP-62 NSCLC,> 100 µM
same,TGI,HCC-2998 colon,> 100 µM
same,TGI,PC-3 prostate,> 100 µM
O=C(O)CCC(=O)Nc1ccc2ccccc2c1,TGI,HCT-15 colon,> 100 µM
same,TGI,ACHN renal,> 100 µM
same,TGI,UO-31 renal,> 100 µM
same,TGI,SF-268 CNS,> 100 µM
same,TGI,RXF 393 renal,> 100 µM
same,TGI,HT29 colon,> 100 µM
same,TGI,NCI-H23 lung,> 100 µM
same,TGI,LOX IMVI melanoma,> 100 µM
same,TGI,UACC-62 melanoma,> 100 µM
same,TGI,NCI-H522 lung,> 100 µM
same,TGI,HOP-92 NSCLC,> 100 µM
same,TGI,SK-OV-3 ovarian,> 100 µM
same,TGI,SF-295 CNS,> 100 µM
same,TGI,MCF7 breast,> 100 µM
same,TGI,MDA-MB-435,> 100 µM
same,TGI,DU-145 prostate,> 100 µM
same,TGI,OVCAR-4 ovarian,> 100 µM
same,TGI,HOP-62 NSCLC,> 100 µM
same,TGI,HCC-2998 colon,> 100 µM
same,TGI,PC-3 prostate,> 100 µM
CCOC(=O)NC(=O)c1cn(CCNCCO)c(=O)[nH]c1=O,TGI,HCT-15 colon,> 100 µM
same,TGI,ACHN renal,> 100 µM
same,TGI,SF-268 CNS,> 100 µM
same,TGI,HT29 colon,> 100 µM
same,TGI,NCI-H23 lung,> 100 µM
same,TGI,LOX IMVI melanoma,> 100 µM
same,TGI,UACC-62 melanoma,> 100 µM
same,TGI,NCI-H522 lung,> 100 µM
same,TGI,HOP-92 NSCLC,> 100 µM
same,TGI,SK-OV-3 ovarian,> 100 µM
same,TGI,SF-295 CNS,> 100 µM
same,TGI,OVCAR-4 ovarian,> 100 µM
same,TGI,HOP-62 NSCLC,> 100 µM
COc1ccc(CC2CCc3nc(N)nc(N)c3C2)cc1OC (configuration not stated),TGI,HCT-15 colon,98 µM
same,TGI,ACHN renal,> 63.1 µM
same,TGI,UO-31 renal,> 100 µM
same,TGI,SF-268 CNS,> 29 µM
same,TGI,RXF 393 renal,0.81 µM
same,TGI,HT29 colon,> 24.5 µM
same,TGI,NCI-H23 lung,> 50 µM
same,TGI,LOX IMVI melanoma,21.1 µM
same,TGI,UACC-62 melanoma,> 36.9 µM
same,TGI,NCI-H522 lung,12.6 µM
same,TGI,HOP-92 NSCLC,> 100 µM
same,TGI,SK-OV-3 ovarian,> 100 µM
same,TGI,SF-295 CNS,> 41.4 µM
same,TGI,MCF7 breast,> 44.4 µM
same,TGI,MDA-MB-435,> 100 µM
same,TGI,OVCAR-4 ovarian,> 100 µM
same,TGI,HOP-62 NSCLC,> 100 µM
same,TGI,HCC-2998 colon,> 47 µM
same,TGI,PC-3 prostate,> 100 µM
CC(CCC(=O)O)(c1ccc(O)cc1)c1ccc(O)cc1,TGI,HCT-15 colon,> 100 µM
same,TGI,ACHN renal,> 100 µM
same,TGI,UO-31 renal,> 100 µM
same,TGI,SF-268 CNS,> 100 µM
same,TGI,RXF 393 renal,> 100 µM
same,TGI,HT29 colon,> 100 µM
same,TGI,NCI-H23 lung,> 100 µM
same,TGI,LOX IMVI melanoma,> 100 µM
same,TGI,UACC-62 melanoma,> 100 µM
same,TGI,NCI-H522 lung,> 100 µM
same,TGI,HOP-92 NSCLC,> 100 µM
same,TGI,SF-295 CNS,> 100 µM
same,TGI,MDA-MB-435,> 100 µM
same,TGI,DU-145 prostate,> 100 µM
same,TGI,OVCAR-4 ovarian,> 100 µM
same,TGI,HOP-62 NSCLC,> 100 µM
same,TGI,PC-3 prostate,> 100 µM
O=C(N/N=C/C=C/c1ccccc1)[C@H](O)[C@@H](O)C(=O)N/N=C/C=C/c1ccccc1,TGI,HCT-15 colon,> 100 µM
same,TGI,ACHN renal,> 100 µM
same,TGI,UO-31 renal,> 100 µM
same,TGI,SF-268 CNS,> 100 µM
same,TGI,RXF 393 renal,> 100 µM
same,TGI,NCI-H23 lung,> 100 µM
same,TGI,LOX IMVI melanoma,> 100 µM
same,TGI,UACC-62 melanoma,> 100 µM
same,TGI,NCI-H522 lung,> 100 µM
same,TGI,SF-295 CNS,> 100 µM
same,TGI,HCC-2998 colon,> 100 µM
